Values of other authors, collected in US5663151A, “Sulfated α-glycolipid derivatives as cell adhesion inhibitors” (Bristol-Myers Squibb Company, priority 1995, dated 1997).

Assays:
P-selectin [1] = conditions: Larsen et al.; Erbe et al.; Aruffo et al.; cited from earlier work
P-selectin [2] = conditions: cells grown in the presence of sodium selenate; cited from earlier work
P-selectin [3] = conditions: Skinner et al.; cited from earlier work

In the case of `CC(=O)N[C@H]1C(O)O[C@H](CO)[C@@H](O[C@@H]2O[C@H](CO)[C@H](O)[C@H](O)[C@H]2O)[C@@H]1O[C@@H]1O[C@@H](C)[C@@H](O)[C@@H](O)[C@@H]1O` (stereo partly shown) [Le^x], the “P-selectin has been shown to bind” value (P-selectin [1]) is given as “shown to bind”.

For `O=[Se](=O)(O)O` [sodium selenate], the “binding of P-selectin to myeloid cell lines” value (P-selectin [2]) is given as “can be inhibited”.

For heparin, the “inhibit P-selectin mediated adhesion” value (P-selectin [3]) is given as “inhibit P-selectin mediated adhesion”.

In the case of sialyl-Le^x, the “P-selectin has been shown to bind” value (P-selectin [1]) is listed as “shown to bind”.
